Measurements from patent publication US20070048360A1, “Pharmaceutical compositions with melting point depressant agents and method of making same” (priority 2005, published 2007).
Where two headings read alike, the source gives them in different places.

Tests used:
[1] = cited from earlier work
[2] = Aqueous blending of bulk powdered CFI and active drug, visual and microscopic check; type: physicochemical
[3] = oral; cited from earlier work

CC(=O)CCc1ccc2c(c1)OCO2 [4-(1,3-benzodioxol-5-yl)butan-2-one]
Log P [1]: Log P: 1.15

COc1ccccc1OCCNCC(O)COc1cccc2[nH]c3ccccc3c12 (stereo not drawn) [CAR, Carvedilol]
ethanol content of hydro-alcoholic mixture needed to solubilize the drug (drug 1% w/w): at least 80 % by weight of the total mixture
aspect of composition API:PES 1:1 in ethanol/purified water ([2]; 30% ethanol): stable oil droplets

Clc1cccc(Cl)c1N=C1NCCN1 [CLO, clonidine]
ethanol content of hydro-alcoholic mixture needed to solubilize the drug (drug 0.5% w/w): at least 50 % by weight of the total mixture
aspect of composition API:PES 1:1 in ethanol/purified water ([2]; 5% ethanol): stable oil droplets
aspect of composition API:PES 1:1 in ethanol/purified water ([2]; 10% ethanol): stable oil droplets

CN1C2CCCC1CC(NC(=O)c1nn(C)c3ccccc13)C2 (stereo not drawn) [GRA, Granisetron]
ethanol content of hydro-alcoholic mixture needed to solubilize the drug (drug 0.5% w/w): at least 40 % by weight of the total mixture
aspect of composition API:PES 1:1 in ethanol/purified water ([2]; 30% ethanol): stable oil droplets

CC(C)Cc1ccc(C(C)C(=O)O)cc1 (stereo not drawn) [Ibuprofen, ibuprofen]
ethanol content of hydro-alcoholic mixture needed to solubilize the drug (drug 1% w/w): at least 50 % by weight of the total mixture

c1ccc2c(c1)CC1COCOC21 (stereo not drawn) [Indeno-m-dioxin tetrahydro]
Log P [1]: Log P: 1.33

CCN(CC)CC(=O)Nc1c(C)cccc1C [Lidocaine, lidocaine]
storage period over which aspect (transparent droplets, no crystallization) was maintained ([2]; lidocaine 2.50% w/w and PES 2.50% w/w in water, ambient temperature in the dark): > 13 month

CCN(CC)CC#CCOC(=O)C(O)(c1ccccc1)C1CCCCC1 (stereo not drawn) [OXY, oxybutynin]
aspect of composition API:PES 1:1 in ethanol/purified water ([2]; 30% ethanol): small transparent droplets easily re-suspended

CC(C)(C)C1CCCCC1O (stereo not drawn) [Ortho tertiary butyl cyclohexanol]
Log P [1]: Log P: 3.3-3.4

O=C(OCCc1ccccc1)c1ccccc1O [Phenyl ethyl salicylate]
Log P [1]: Log P: 4.31

CCCN(CCC)CCc1cccc2c1CC(=O)N2 [ROP, Ropinirole]
ethanol content of hydro-alcoholic mixture needed to solubilize the drug (drug 1% w/w): at least 40 % by weight of the total mixture
aspect of composition API:PES 1:1 in ethanol/purified water ([2]; 15% ethanol): stable oil droplets

C[C@]12CC[C@H]3[C@@H](CCC4=CC(=O)CC[C@@]43C)[C@@H]1CC[C@@H]2O [TES, Testosterone]
aspect of composition API:PES 1:1 in ethanol/purified water [2]: stable oil droplets

NCCCC(O)(P(=O)(O)O)P(=O)(O)O [sodium alendronate]
fraction of the drug absorbed when administered orally [3]: about 0.6%
